# Publication PMC12067145 (ACS Medicinal Chemistry Letters, 2025)
# Like-named read-outs stand apart in the source and are kept apart here.
# Tests used:
# human TREK-1 = target: T1, human TREK-1 (Homo sapiens, UniProt O95069); assay: TREK-1 thallium (Tl+) flux assay; details: for IC50: read-out: h TREK-1 Tl+ IC50, thallium flux, hTREK-1/CHO
# T1 sequence (O95069 1-426): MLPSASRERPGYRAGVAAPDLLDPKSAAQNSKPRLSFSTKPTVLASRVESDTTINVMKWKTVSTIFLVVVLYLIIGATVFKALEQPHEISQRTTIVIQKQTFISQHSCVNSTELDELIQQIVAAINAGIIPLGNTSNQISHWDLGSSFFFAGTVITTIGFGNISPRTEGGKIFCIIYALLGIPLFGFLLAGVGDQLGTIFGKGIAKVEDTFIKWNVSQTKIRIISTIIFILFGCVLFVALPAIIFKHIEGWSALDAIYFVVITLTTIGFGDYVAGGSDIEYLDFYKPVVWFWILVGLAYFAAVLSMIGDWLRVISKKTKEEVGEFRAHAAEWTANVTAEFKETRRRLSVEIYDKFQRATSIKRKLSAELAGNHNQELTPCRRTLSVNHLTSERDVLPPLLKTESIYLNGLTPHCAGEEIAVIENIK
# ChromatoLogD = format: physicochemical
# From the text: 1 TREK-1 Inhibitory Activity and Lipophilicity of Analogues 10 | column: ChromatoLogD
# [1] = Liver microsome intrinsic clearance (human); format: in vitro ADME; details: for CLint scaled at 1 µM: pH 7.4, human liver microsomes, read-out: LMS CLINT human
# Experimental: (§1) After a 5 min preincubation, the reaction was initiated by the addition of NADPH (1 mM). At selected time intervals between 0 ~ 60 min (e.g. 0, 3, 7, 15, 25, 45 and/or 60 min), aliquots were taken and subsequently placed into a 96-well plate containing cold acetonitrile with an internal standard (50 ng/mL carbamazepine). Plates were then centrifuged at 3000 rcf (4 °C) for 10 min, and the supernatant was transferred to a separate 96-well plate and diluted 1:1 with water for LC/MS/MS analysis. The in vitro half-life (T 1/2, min, Eq. 1), intrinsic clearance (CLint, mL/min/kg, Eq. 2), and subsequent predicted hepatic clearance (CLhep, mL/min/kg, Eq. 3) were determined employing the following equations: […]
# (§2) where k represents the slope from linear regression analysis of the natural log percent remaining of a test compound as a function of incubation time […]
# (§3) (2) CLint = in vitroT1/2 x mg microsomes x gram liver x kg body wt ascale-up factors: of 20 (human) or 45 (rat) or 87.5 (mouse) […]
# (§4) where Qh (hepatic blood flow, mL/min/kg) is 21 (human) or 70 (rat) or 90 (mouse).
# (§5) LC/MS/MS Bioanalysis of Samples from Plasma Protein Binding and Intrinsic Clearance […]
# (§6) Samples were analyzed on a Thermo Electron TSQ Quantum Ultra triple quad mass spectrometer (San Jose, CA) via electrospray ionization (ESI) with two Themo Electron Accella pumps (San Jose, CA), and a Leap Technologies CTC PAL autosampler (Carrboro, NC). Analytes were separated by gradient elution on a dual column system with two Thermo Hypersil Gold (2.1 x 30 mm, 1.9 µm) columns (San Jose, CA) thermostated at 40 °C. HPLC mobile phase A was 0.1% formic acid in water and mobile phase B was 0.1% formic acid in acetonitrile. The gradient started […]
# (§7) for 0.2 min; returned to 10% B in 0.1 min. The total run time was 1.3 min and the HPLC flow rate was 0.8 mL/min. While pump 1 ran the gradient method, pump 2 equilibrated the alternate column isocratically at 10% B. Compound optimization, data collection, and processing were performed using Thermo Electron's QuickQuan software (v2.3) and Xcalibur (v2.0.7 SP1). […]
# [2] = Rat IV:PBL PK cassette study / in vivo rat clearance; details: male, Sprague-Dawley, in vivo rat plasma clearance, read-out: rat CLp; for clearance: intravenous; for clearance at 24 h: iv, 0.2 mg/kg
# [3] = Plasma protein binding (mouse); format: in vitro ADME; details: pH 7.4, read-out: PPB mouse (converted)
# Experimental: (§8) 0.3% DMSO - ΔRatio of 1 µM control compound)x100
# (§9) In vitro Plasma protein binding and Brain homogenate binding: Determination of fraction unbound (f u) in plasma was conducted in vitro via equilibrium dialysis using HTDialysis (HTD) membrane plates. The top half of the plate was filled with 100 uL of Dubelco’s Phosphate Buffered Saline, pH 7.4 (DPBS). Compounds were diluted into plasma from each species (5 µM final concentration), which was aliquoted in triplicate to the ‘bottom half’ of the prepared HTD plate wells. The HTD plate was sealed and incubated for 6 hours at 37 °C. Following incubation, each well (both top and bottom halves) were transferred (20 µL) to the corresponding wells of a 96-shallow-well (V-bottom) plate. The daughter plates were then matrix-matched (DPBS side wells received equal volume of plasma, and plasma side wells received equal volume of DPBS), and extraction solution (120 µL; acetonitrile containing 50 nM carbamazepine as IS) was added to all wells of both daughter plates to precipitate protein and extract test article. The plates were then sealed and centrifuged (3500 rcf) for 10 minutes at ambient temperature. Supernatant (60 µL) from each well of the daughter plates was then transferred to the corresponding wells of new daughter plates (96-shallow-well, V bottom) containing water (Milli-Q, 60 µL/well), and the plates were sealed in preparation for LC-MS/MS analysis (see LC-MS/MS analysis method below).
# (§10) The unbound fraction (f u) was calculated following the equation below, and mean values for each species were calculated from 3 replicates. A similar approach was used to determine the degree of brain homogenate binding, which employed the same methodology and procedure with the following modifications: 1) a final compound concentration of 1 μM was used, 2) naïve rat brains were homogenized in DPBS (1:3 composition of brain: DPBS, w/w) using a Mini-Bead Beater™ machine in order to obtain brain homogenate, which was then treated in the same manner as the plasma samples in the previously described plasma protein binding assay. Fraction unbound for both plasma and brain samples was determined using Equation 4.
# [4] = Plasma protein binding (human); format: in vitro ADME; details: pH 7.4, read-out: PPB human (converted)
# Experimental: as §8, §9, §10
# [5] = Liver microsome intrinsic clearance (mouse); format: in vitro ADME; details: pH 7.4; mouse liver microsomes; read-out: LMS CLINT mouse
# Experimental: as §1, §2, §3, §4, §5, §6, §7
# Aqueous solubility = format: physicochemical; details: cyclopropyl amides versus N-Boc series
# [6] = Liver microsome intrinsic clearance (rat); format: in vitro ADME; details: pH 7.4; rat liver microsomes; read-out: LMS CLINT rat
# Experimental: as §1, §2, §3, §4, §5, §6, §7
# [7] = Plasma protein binding (species not stated); format: in vitro ADME; details: pH 7.4
# Experimental: as §8
# as §9, with “Supernatant (60 µL) from each well of the daughter plates was then transferred to the corresponding wells of new daughter plates (96-shallow-well, V bottom) containing water (Milli-Q, 60 µL/well), and the plates were sealed in preparation for LC-MS/MS analysis (see LC-MS/MS analysis method below).” left out
# The unbound fraction (f u) was calculated following the equation below, and mean values for each species were calculated from 3 replicates. […] Fraction unbound for both plasma and brain samples was determined using Equation 4.
# TREK-1 = details: cited from earlier work
compound,measurement,setting,value
Cc1cc(OCc2ccccc2)ccc1NC(=O)c1cc(NC(=O)OC(C)(C)C)ccc1Cl [Compound 6],increase in TREK-1 potency,human TREK-1; versus HTS hit 5,~17 fold
same,chromatographic logD,ChromatoLogD,4.9
Cc1cc(OCc2ccccc2)cnc1NC(=O)c1cc(NC(=O)OC(C)(C)C)ccc1Cl [Compound 10a],CLint scaled at 1 µM,[1],137 mL/min/kg
same,IC50,human TREK-1,0.56 µM
same,chromatographic logD,ChromatoLogD,4.4
Cc1nc(OCc2ccccc2)ccc1NC(=O)c1cc(NC(=O)OC(C)(C)C)ccc1Cl [Compound 10b],chromatographic logD,ChromatoLogD,5
Cc1nc(OCc2ccccc2)cnc1NC(=O)c1cc(NC(=O)OC(C)(C)C)ccc1Cl [Compound 10c],clearance,[2],135 mL/min/kg
same,chromatographic logD,ChromatoLogD,4.8
Cc1cc(C#Cc2ccccc2)cnc1NC(=O)c1cc(NC(=O)OC(C)(C)C)ccc1Cl [Compound 11],"fraction unbound at 6 h, 5 µM",[3],0.013
same,CLint scaled at 1 µM,[1],13 mL/min/kg
same,lowering of human microsomal intrinsic clearance,[1]; versus 10a,10 fold
same,"fraction unbound at 6 h, 5 µM",[4],0.005
same,CLint scaled at 1 µM,[5],34 mL/min/kg
same,increase in TREK-1 potency,human TREK-1; versus 10a,~4 fold
Cc1nc(C#Cc2ccccc2)cnc1NC(=O)c1cc(NC(=O)OC(C)(C)C)ccc1Cl [Compound 12],clearance,[2],25 mL/min/kg
CC(C)(C)OC(=O)Nc1ccc(Cl)c(C(=O)Nc2ncc(C#Cc3ccccc3)cc2F)c1 [Compound 13a],"fraction unbound at 6 h, 5 µM",[3],0.011
same,CLint scaled at 1 µM,[1],10 mL/min/kg
same,"fraction unbound at 6 h, 5 µM",[4],0.002
same,CLint scaled at 1 µM,[5],6 mL/min/kg
CC(C)(C)OC(=O)Nc1ccc(Cl)c(C(=O)Nc2ncc(C#Cc3ccccc3)cc2Cl)c1 [Compound 13b],"fraction unbound at 6 h, 5 µM",[3],< 0.001
Cc1cc(C#Cc2ccccc2F)cnc1NC(=O)c1cc(NC(=O)OC(C)(C)C)ccc1Cl [Compound 14a],CLint scaled at 1 µM,[1],13 mL/min/kg
same,CLint scaled at 1 µM,[5],13 mL/min/kg
same,IC50,human TREK-1,0.54 µM
Cc1cc(C#Cc2cccc(F)c2)cnc1NC(=O)c1cc(NC(=O)OC(C)(C)C)ccc1Cl [Compound 14b],"fraction unbound at 6 h, 5 µM",[3],< 0.001
same,CLint scaled at 1 µM,[1],20 mL/min/kg
same,"fraction unbound at 6 h, 5 µM",[4],< 0.001
same,CLint scaled at 1 µM,[5],40 mL/min/kg
Cc1cc(C#Cc2ccncc2)cnc1NC(=O)c1cc(NC(=O)OC(C)(C)C)ccc1Cl [Compound 14d],CLint scaled at 1 µM,[1],27 mL/min/kg
same,CLint scaled at 1 µM,[5],78 mL/min/kg
Cc1cc(C#Cc2ccccc2)cnc1NC(=O)c1cc(NC(=O)C2CC2)ccc1Cl [Compound 15a],clearance at 24 h,[2],12 mL/min/kg
same,CLint scaled at 1 µM,[1],13 mL/min/kg
same,CLint scaled at 1 µM,[5],69 mL/min/kg
same,aqueous solubility (in words),Aqueous solubility,no improvement on aqueous solubility
same,IC50,human TREK-1,0.18 µM
same,CLint scaled at 1 µM,[6],25 mL/min/kg
same,"fraction unbound at 6 h, 5 µM",[7],< 0.003
Cc1cc(C#Cc2ccc(F)cc2)cnc1NC(=O)c1cc(NC(=O)C2CC2)ccc1Cl [Compound 15b],clearance at 24 h,[2],1.4 mL/min/kg
same,CLint scaled at 1 µM,[1],10 mL/min/kg
same,CLint scaled at 1 µM,[5],50 mL/min/kg
same,aqueous solubility (in words),Aqueous solubility,no improvement on aqueous solubility
same,CLint scaled at 1 µM,[6],10 mL/min/kg
same,"fraction unbound at 6 h, 5 µM",[7],< 0.003
Cc1ccccc1CC1OC(=O)c2cc(C3CCNCC3)ccc21 (centres unmarked) [Cpd8],IC50,TREK-1,0.81 µM
O=C(CSc1ccc2ccccc2n1)NNC(=O)c1ccc(Cl)cc1 [TKIM],IC50,TREK-1; state-dependent TREK-1 inhibitor,2.96 µM
